In patent US4416884A, “Piperazinylbenzoheterocyclic compounds” (Otsuka Pharmaceutical Co., Ltd., priority 1978, dated 1983):
Converted amounts (≈) assume the structure as drawn. Where two headings read alike, the source gives them in different places.

Assays:
Assay type in all cases: cell-based
[1] = test system: Test Organism 16 (Pseudomonas maltophilia IFO 12692); assay: influence of the addition of horse serum on the MIC; settings: Stenotrophomonas maltophilia
[2] = test system: Salmonella typhi 0-901 (NCTC 8393); assay: antimicrobial activity, serial dilution method on agar plate; settings: Salmonella enterica, read-out: Minimum Inhibitory Concentration
Outline: (§1)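 Two inoculum levels used: 1×10^8 cells/ml (O.D. 660 mμ = 0.07–0.16) and a diluted 1×10^6 cells/ml preparation. Minimum inhibitory concentrations in mcg/ml read from serial dilution on Heart Infusion agar plates.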

Klebsiella pneumoniae = assay: as above
Outline: as §1

[3] = test system: Corinebacterium diphteriae; assay: as above
Outline: as §1

Proteus rettgeri NIH 96 = assay: as above; settings: Providencia rettgeri
Outline: as §1

[4] = test system: Proteus morganii IID Kono; assay: as above; settings: Morganella morganii
Outline: as §1

Enterobacter cloacae = assay: as above
Outline: as §1

Shigella Sonnei EW 33 = assay: as above; settings: read-out: Minimum Inhibitory Concentration
Outline: as §1

[5] = test system: Staphylococcus aureus FDA 209 P; assay: as above
Outline: as §1

[6] = test system: Serattia marcescens IFO 12648; assay: as above
Outline: as §1

[7] = test system: Pseudomonas aeruginosa E-2; assay: as above
Outline: as §1

[8] = test system: Klebsiella pneumoniae ST-101; assay: as above
Outline: as §1

[9] = test system: Enterobacter aerogenes IFO 12979; assay: as above; settings: Klebsiella aerogenes
Outline: as §1

[10] = test system: Bacillus subtilis PCI 219; assay: as above
Outline: as §1

[11] = test system: Proteus vulgaris IID OX-19; assay: as above; settings: read-out: Minimum Inhibitory Concentration
Outline: as §1

[12] = test system: Streptococcus pyogenes IID S-23; assay: as above
Outline: as §1

Escherichia Coli NIHJ = assay: as above
Outline: as §1

[13] = test system: Streptococcus pneumoniae Type III; assay: as above
Outline: as §1

[14] = test system: Streptococcus pyogenes IID Cook; assay: as above
Outline: as §1

[15] = test system: Yersinia enterocolitica 0-3; assay: as above
Outline: as §1

[16] = test system: Pseudomonas maltophilia IFO 12692; assay: as above; settings: Stenotrophomonas maltophilia, IFO12692, read-out: Minimum Inhibitory Concentration
Outline: as §1

[17] = test system: Test Organism 1 (Escherichia Coli NIHJ); assay: influence of the addition of horse serum on the MIC
[18] = test system: Test Organism 27 (Streptococcus pneumoniae Type III); assay: as above
[19] = test system: Test Organism 17 (Pseudomonas putida IFO 13696); assay: as above
[20] = read-out: Minimum Inhibitory Concentration, inoculum 1 × 10^6 cells/ml
[21] = read-out: Minimum Inhibitory Concentration, inoculum 1 × 10^8 cells/ml
[22] = read-out: Minimum Inhibitory Concentration, horse serum 0%, inoculum 10^6
[23] = read-out: Minimum Inhibitory Concentration, horse serum 0%, inoculum 10^8
[24] = read-out: Minimum Inhibitory Concentration, horse serum 10%, inoculum 10^6
[25] = read-out: Minimum Inhibitory Concentration, horse serum 10%, inoculum 10^8
[26] = read-out: Minimum Inhibitory Concentration, horse serum 20%, inoculum 10^6
[27] = read-out: Minimum Inhibitory Concentration, horse serum 20%, inoculum 10^8
[28] = read-out: Minimum Inhibitory Concentration, horse serum 40%, inoculum 10^6
[29] = read-out: Minimum Inhibitory Concentration, horse serum 40%, inoculum 10^8

`CC1CCc2c(N3CCNCC3)ccc3c(=O)c(C(=O)O)cn1c23` (centres unmarked) [A] gave an MIC ([1]; IFO12692, read-out: Minimum Inhibitory Concentration, horse serum 0%, inoculum 10^6) of 1.6 µg/mL (≈ 4.89 µM), an MIC ([1]; IFO12692, read-out: Minimum Inhibitory Concentration, horse serum 0%, inoculum 10^8) of 3.1 µg/mL (≈ 9.47 µM) and an MIC ([1]; IFO12692, read-out: Minimum Inhibitory Concentration, horse serum 10%, inoculum 10^6) of 1.6 µg/mL (≈ 4.89 µM). The MIC ([1]; IFO12692, read-out: Minimum Inhibitory Concentration, horse serum 10%, inoculum 10^8) was 1.6 µg/mL (≈ 4.89 µM), the MIC ([1]; IFO12692, read-out: Minimum Inhibitory Concentration, horse serum 20%, inoculum 10^6) was 0.8 µg/mL (≈ 2.44 µM) and the MIC ([1]; IFO12692, read-out: Minimum Inhibitory Concentration, horse serum 20%, inoculum 10^8) was 0.8 µg/mL (≈ 2.44 µM). It also gave an MIC ([1]; IFO12692, read-out: Minimum Inhibitory Concentration, horse serum 40%, inoculum 10^6) of 0.4 µg/mL (≈ 1.22 µM), an MIC ([1]; IFO12692, read-out: Minimum Inhibitory Concentration, horse serum 40%, inoculum 10^8) of 0.8 µg/mL (≈ 2.44 µM) and an MIC ([2]; inoculum 1 × 10^6 cells/ml) of 0.2 µg/mL (≈ 0.611 µM). For the same compound, the MIC ([2]; inoculum 1 × 10^8 cells/ml) was 0.4 µg/mL (≈ 1.22 µM), the MIC (Klebsiella pneumoniae; [20]) was 1.6 µg/mL (≈ 4.89 µM) and the MIC (Klebsiella pneumoniae; [21]) was 1.6 µg/mL (≈ 4.89 µM). It also gave an MIC [3, 20] of 1.6 µg/mL (≈ 4.89 µM), an MIC [3, 21] of 1.6 µg/mL (≈ 4.89 µM) and an MIC (Proteus rettgeri NIH 96; NIH96, read-out: Minimum Inhibitory Concentration, inoculum 1 × 10^6 cells/ml) of 0.4 µg/mL (≈ 1.22 µM). It also gave an MIC (Proteus rettgeri NIH 96; NIH96, read-out: Minimum Inhibitory Concentration, inoculum 1 × 10^8 cells/ml) of 0.4 µg/mL (≈ 1.22 µM), an MIC [4, 20] of 3.1 µg/mL (≈ 9.47 µM) and an MIC [4, 21] of 6.3 µg/mL (≈ 19.2 µM). The MIC (Enterobacter cloacae; [20]) was 0.8 µg/mL (≈ 2.44 µM), the MIC (Enterobacter cloacae; [21]) was 0.8 µg/mL (≈ 2.44 µM) and the MIC (Shigella Sonnei EW 33; inoculum 1 × 10^6 cells/ml) was 0.4 µg/mL (≈ 1.22 µM). It also gave an MIC (Shigella Sonnei EW 33; inoculum 1 × 10^8 cells/ml) of 0.8 µg/mL (≈ 2.44 µM), an MIC ([5]; FDA209, read-out: Minimum Inhibitory Concentration, inoculum 1 × 10^6 cells/ml) of 3.1 µg/mL (≈ 9.47 µM) and an MIC ([5]; FDA209, read-out: Minimum Inhibitory Concentration, inoculum 1 × 10^8 cells/ml) of 6.3 µg/mL (≈ 19.2 µM). For the same compound, the MIC [6, 20] was 1.6 µg/mL (≈ 4.89 µM), the MIC [6, 21] was 3.1 µg/mL (≈ 9.47 µM) and the MIC ([7]; E2, read-out: Minimum Inhibitory Concentration, inoculum 1 × 10^6 cells/ml) was 6.3 µg/mL (≈ 19.2 µM). For the same compound, the MIC ([7]; E2, read-out: Minimum Inhibitory Concentration, inoculum 1 × 10^8 cells/ml) was 12.5 µg/mL (≈ 38.2 µM), the MIC ([8]; ST101, read-out: Minimum Inhibitory Concentration, inoculum 1 × 10^6 cells/ml) was 0.2 µg/mL (≈ 0.611 µM) and the MIC ([8]; ST101, read-out: Minimum Inhibitory Concentration, inoculum 1 × 10^8 cells/ml) was 0.4 µg/mL (≈ 1.22 µM). It also gave an MIC ([9]; IFO12979, read-out: Minimum Inhibitory Concentration, inoculum 1 × 10^6 cells/ml) of 0.8 µg/mL (≈ 2.44 µM), an MIC ([9]; IFO12979, read-out: Minimum Inhibitory Concentration, inoculum 1 × 10^8 cells/ml) of 0.8 µg/mL (≈ 2.44 µM) and an MIC ([10]; PCI219, read-out: Minimum Inhibitory Concentration, inoculum 1 × 10^6 cells/ml) of 0.8 µg/mL (≈ 2.44 µM). For the same compound, the MIC ([10]; PCI219, read-out: Minimum Inhibitory Concentration, inoculum 1 × 10^8 cells/ml) was 0.8 µg/mL (≈ 2.44 µM), the MIC ([11]; IIDOX19, inoculum 1 × 10^6 cells/ml) was 0.8 µg/mL (≈ 2.44 µM) and the MIC ([11]; IIDOX19, inoculum 1 × 10^8 cells/ml) was 1.6 µg/mL (≈ 4.89 µM). The MIC ([12]; IIDS23, read-out: Minimum Inhibitory Concentration, inoculum 1 × 10^6 cells/ml) was 12.5 µg/mL (≈ 38.2 µM), the MIC ([12]; IIDS23, read-out: Minimum Inhibitory Concentration, inoculum 1 × 10^8 cells/ml) was 25 µg/mL (≈ 76.4 µM) and the MIC (Escherichia Coli NIHJ; [20]) was 0.4 µg/mL (≈ 1.22 µM). For the same compound, the MIC (Escherichia Coli NIHJ; [21]) was 0.8 µg/mL (≈ 2.44 µM), the MIC [13, 20] was 12.5 µg/mL (≈ 38.2 µM) and the MIC [13, 21] was 25 µg/mL (≈ 76.4 µM). It also gave an MIC [14, 20] of 12.5 µg/mL (≈ 38.2 µM), an MIC [14, 21] of 25 µg/mL (≈ 76.4 µM) and an MIC ([15]; Yersinia enterocolitica, 03, read-out: Minimum Inhibitory Concentration, inoculum 1 × 10^6 cells/ml) of 1.6 µg/mL (≈ 4.89 µM). For the same compound, the MIC ([15]; Yersinia enterocolitica, 03, read-out: Minimum Inhibitory Concentration, inoculum 1 × 10^8 cells/ml) was 3.1 µg/mL (≈ 9.47 µM), the MIC [16] was 12.5 µg/mL (≈ 38.2 µM) and the MIC [17, 22] was 6.3 µg/mL (≈ 19.2 µM). The MIC [17, 23] was 6.3 µg/mL (≈ 19.2 µM), the MIC [17, 24] was 3.1 µg/mL (≈ 9.47 µM) and the MIC [17, 25] was 6.3 µg/mL (≈ 19.2 µM). It also gave an MIC [17, 26] of 3.1 µg/mL (≈ 9.47 µM), an MIC [17, 27] of 3.1 µg/mL (≈ 9.47 µM) and an MIC [17, 28] of 3.1 µg/mL (≈ 9.47 µM). For the same compound, the MIC [17, 29] was 3.1 µg/mL (≈ 9.47 µM), the MIC [18, 22] was 6.3 µg/mL (≈ 19.2 µM) and the MIC [18, 23] was 12.5 µg/mL (≈ 38.2 µM). It also gave an MIC [18, 24] of 6.3 µg/mL (≈ 19.2 µM), an MIC [18, 25] of 6.3 µg/mL (≈ 19.2 µM) and an MIC [18, 26] of 6.3 µg/mL (≈ 19.2 µM). It also gave an MIC [18, 27] of 6.3 µg/mL (≈ 19.2 µM), an MIC [18, 28] of 3.1 µg/mL (≈ 9.47 µM) and an MIC [18, 29] of 6.3 µg/mL (≈ 19.2 µM). The MIC ([19]; IFO13696, read-out: Minimum Inhibitory Concentration, horse serum 0%, inoculum 10^6) was 0.2 µg/mL (≈ 0.611 µM), the MIC ([19]; IFO13696, read-out: Minimum Inhibitory Concentration, horse serum 0%, inoculum 10^8) was 0.4 µg/mL (≈ 1.22 µM) and the MIC ([19]; IFO13696, read-out: Minimum Inhibitory Concentration, horse serum 10%, inoculum 10^6) was 0.2 µg/mL (≈ 0.611 µM). For the same compound, the MIC ([19]; IFO13696, read-out: Minimum Inhibitory Concentration, horse serum 10%, inoculum 10^8) was 0.2 µg/mL (≈ 0.611 µM), the MIC ([19]; IFO13696, read-out: Minimum Inhibitory Concentration, horse serum 20%, inoculum 10^6) was 0.2 µg/mL (≈ 0.611 µM) and the MIC ([19]; IFO13696, read-out: Minimum Inhibitory Concentration, horse serum 20%, inoculum 10^8) was 0.2 µg/mL (≈ 0.611 µM). The MIC ([19]; IFO13696, read-out: Minimum Inhibitory Concentration, horse serum 40%, inoculum 10^6) was 0.2 µg/mL (≈ 0.611 µM) and the MIC ([19]; IFO13696, read-out: Minimum Inhibitory Concentration, horse serum 40%, inoculum 10^8) was 0.2 µg/mL (≈ 0.611 µM).
